The structures appear in SMILES notation.

Data set [1] deals with SARS-CoV-2 (isolate Wuhan-Hu-1). Put plainly: microbe, parasite or virus in culture. Format: cell-based. As to conditions: for IC50: Severe acute respiratory syndrome coronavirus 2, Vero C1008, 24 h, read-out: IC50 (half-maximal inhibitory concentration), anti-SARS-CoV-2 activity.
The nature of data set [2]: in vitro. Conditions: human.
The nature of data set [3]: in vitro. As to conditions: African green monkey.
A further data set deals with CXCL-10. Format: cell-based, human.
The subject of a further data set is IL-1β. Type of data set: cell-based, human.
Data set [4] relates to SARS-CoV-2 S protein-mediated cell-cell fusion. Format: cell-based.
Another data set concerns SARS-CoV-2 S PsV. Put plainly: microbe, parasite or virus in culture. Type of data set: cell-based.
The subject of another data set is 3 C-like protease. As to conditions: cited from earlier work.
The subject of another data set is IL-6. Type of data set: cell-based, human.
In the next data set the test system is papain-like protease. As to conditions: cited from earlier work.

Turning to `COc1ccc([C@@H]2CC(=O)c3c(O)cc(O)cc3O2)cc1O` [HE, Hesperetin], in data set [1], the “SI: selectivity index as CC50/IC50” value is above 4.00 and the IC50 amounted to 50 ± 0.66 µM. This compound gave a CC50 in the data set “in vitro [2]” above 400 µM. The CC50 in “in vitro [3]” was above 200 µM.
On to `O=C(/C=C/c1ccc(O)cc1)c1ccc(O)cc1O` [IS, Isoliquiritigenin], for which the “release of CXCL-10 from THP-1 cells” value in the data set on CXCL-10 is “inhibited the release of both CXCL-10 and IL-1β”. For the same compound, the “release of IL-1β from THP-1 cells” value with IL-1β is “inhibited the release of both CXCL-10 and IL-1β”.
As to `O=c1cc(-c2ccc(O)c(O)c2)oc2cc(O)cc(O)c12` [LU, Luteolin], the “release of CXCL-10 from THP-1 cells” value with CXCL-10 was “inhibited the release of CXCL-10”.
`O=C1C[C@@H](c2ccc(O)cc2)Oc2cc(O)cc(O)c21` [NA, Naringenin]: the “release of CXCL-10 from THP-1 cells” value in the data set with CXCL-10 is “inhibited the release of CXCL-10”.
For the compound `COc1c(O)cc2oc(-c3ccccc3)cc(=O)c2c1O` [OA, Oroxylin A], the “SARS-CoV-2 S protein-mediated cell-cell fusion (syncytium formation)” value in [4] was “significantly inhibited”. Also, the “release of CXCL-10 from THP-1 cells” value in the data set on CXCL-10 was “inhibited the release of both CXCL-10 and IL-1β”. Further, the “SI: selectivity index as CC50/IC50” value in [1] was above 6.37. Moreover, the IC50 in [1] was 31.39 ± 0.07 µM; in the data set on SARS-CoV-2 S PsV (Severe acute respiratory syndrome coronavirus 2, read-out: IC50 against SARS-CoV-2 S PsV infection) it was 15 ± 1.46 µM. In the data set on IL-1β, the “release of IL-1β from THP-1 cells” value is “inhibited the release of both CXCL-10 and IL-1β”. In addition, the CC50 in the data set “in vitro [2]” was above 400 µM; in the data set “in vitro [3]” it was above 200 µM.
`Oc1ccc(/C=C/c2cc(O)cc(O)c2)cc1` [RE, Resveratrol]: the “release of IL-1β from THP-1 cells” value with IL-1β is on record as “inhibited the release of IL-1β”.
With `O=C(O)[C@H]1O[C@@H](Oc2cc3oc(-c4ccc(O)cc4)cc(=O)c3c(O)c2O)[C@H](O)[C@@H](O)[C@@H]1O` [SC, Scutellarin], the “inhibition of 3 C-like protease activity” value with 3 C-like protease was “nor the activity of 3 C-like protease and papain-like protease”. Also, the “release of IL-6 from THP-1 cells” value in the data set on IL-6 was “except SC”. In addition, in [1], the “SI: selectivity index as CC50/IC50” value is on record as above 8.90 and the IC50 worked out at 22.47 ± 0.19 µM. Also, the “inhibition of papain-like protease activity” value with papain-like protease is “nor the activity of 3 C-like protease and papain-like protease”. The CC50 in “in vitro [2]” was above 400 µM. For the same compound, the “inhibitory activity against entry of SARS-CoV-2 S PsV (in words)” value in the data set on SARS-CoV-2 S PsV is “inhibits neither the entry of SARS-CoV-2 S PsV”. The same compound gave a CC50 in the data set “in vitro [3]” above 200 µM.
As for `COc1c(O)cc2occ(-c3ccc(O)cc3)c(=O)c2c1O` [TE, Tectorigenin], the “release of CXCL-10 from THP-1 cells” value in the data set on CXCL-10 was “inhibited the release of both CXCL-10 and IL-1β”. For the same compound, the “inhibition of SARS-CoV-2 infection” value in [1] is reported as “approximately 48.31%”. For the same compound, the “release of IL-1β from THP-1 cells” value with IL-1β was “inhibited the release of both CXCL-10 and IL-1β”.

Source of the values: paper PMC9618446 (Biomedicine & Pharmacotherapy, 2022).
